Consider 1 molecule from patent publication US20050106292A1, “High moisture, shelf-stable acidulated food products” (priority 2003, published 2005).

A short description of the data set: Contact of acidic solution with human skin. Type of data set: in vivo. The settings on record: solution with a pH of less than 0.5.

Molecules are shown by their SMILES.

`O=S(=O)(O)O` [sulfuric acid]: the “irritation or injury of the hand put into the solution” value is “an irritation would occur”.
